The supplement of paper PMC10307832

Experiments:
Assay in all cases: relative viability (nuclei count vs DMSO), 5 days (fraction); higher = more cells survive
[1] = compound: CC(C)C[C@H](NC(=O)[C@H](Cc1ccccc1)NC(=O)c1cnccn1)B(O)O [Bortezomib] + COc1cc2c(Oc3ccc(NC(=O)C4(C(=O)Nc5ccc(F)cc5)CC4)cc3F)ccnc2cc1OCCCN1CCOCC1 [Foretinib] (partner 0.25 µM)
Summary of the method: (§1)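 Dosing by pin tool came one day after lung cancer cell lines were seeded in 1536-well plates, using either one drug or a fixed anchor-drug dose plus five library-drug doses (not always all listed) in √10 steps. After 5 days, nuclei were counted on 4× images. Relative viability is treated-well nuclei count divided by vehicle-well nuclei count, and values are medians of duplicate plates.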

[2] = compound: CC(C)C[C@H](NC(=O)[C@H](Cc1ccccc1)NC(=O)c1cnccn1)B(O)O [Bortezomib] + C[C@@H](Oc1cc(-c2cnn(C3CCNCC3)c2)cnc1N)c1c(Cl)ccc(F)c1Cl [Crizotinib] (partner 1 µM)
Summary of the method: as §1

[3] = compound: COC1=CC(c2cc3ccccc3[nH]2)=N/C1=C\c1[nH]c(C)cc1C [Obatoclax] + CC(=O)Nc1cccc(-n2c(=O)n(C3CC3)c(=O)c3c(Nc4ccc(I)cc4F)n(C)c(=O)c(C)c32)c1 [Trametinib] (partner 0.02 µM)
Summary of the method: as §1

[4] = compound: COC1=CC(c2cc3ccccc3[nH]2)=N/C1=C\c1[nH]c(C)cc1C [Obatoclax] + NC(=O)Nc1cc(-c2cccc(F)c2)sc1C(=O)N[C@H]1CCCNC1 [AZD7762] (partner 0.2 µM)
Summary of the method: as §1

Cell Line	relative viability ([1]; first compound 0.0002 µM)	relative viability ([1]; first compound 0.000632 µM)	relative viability ([1]; first compound 0.002 µM)	relative viability ([1]; first compound 0.006325 µM)	relative viability ([1]; first compound 0.02 µM)	relative viability ([2]; first compound 0.0002 µM)	relative viability ([2]; first compound 0.000632 µM)	relative viability ([2]; first compound 0.002 µM)	relative viability ([2]; first compound 0.006325 µM)	relative viability ([2]; first compound 0.02 µM)	relative viability ([3]; first compound 0.01 µM)	relative viability ([3]; first compound 0.03162 µM)	relative viability ([3]; first compound 0.1 µM)	relative viability ([3]; first compound 0.3162 µM)	relative viability ([3]; first compound 1 µM)	relative viability ([4]; first compound 0.01 µM)	relative viability ([4]; first compound 0.03162 µM)	relative viability ([4]; first compound 0.1 µM)	relative viability ([4]; first compound 0.3162 µM)	relative viability ([4]; first compound 1 µM)
NCI-H1651	0.788	0.772	0.423	0.101	0.112	0.805	0.837	0.816	0.778	0.141	0.847	0.811	0.846	0.845	0.836	0.488	0.4	0.421	0.431	0.439
201T	1.05	1.11	0.793	0.297	0.172	0.999	1.07	1.02	1.02	0.32	0.713	0.737	0.776	0.722	0.752	0.608	0.601	0.579	0.614	0.702
NCI-H460	0.983	1.03	1.13	0.115	0.0294	0.979	0.832	0.927	0.0481	0.0102	0.151	0.132	0.232	0.0458	0.0584	0.651	0.537	–	0.617	0.11
NCI-H596	0.88	0.892	0.613	0.17	0.138	0.98	0.957	1.02	0.224	0.182	0.814	0.784	0.692	0.652	0.565	1.06	1.1	0.773	0.443	0.498
HARA	0.851	0.866	0.928	0.0716	0.0683	0.961	0.966	0.789	0.0536	0.067	0.658	0.926	0.83	0.768	0.705	0.379	0.237	0.397	0.173	0.244
NCI-H2126	1.08	1.03	1.12	1.02	0.21	0.991	0.993	1.08	0.957	0.195	0.57	0.493	0.526	0.55	0.546	1.08	0.951	1.05	1.06	0.974
HCC-827	1.11	1.01	0.693	0.113	0.0926	0.915	0.837	0.783	0.251	0.116	0.523	0.512	0.734	0.475	0.595	0.244	0.234	0.215	0.202	0.261
BEN	0.494	0.866	0.769	0.572	0.356	0.78	0.821	0.58	0.447	0.134	1.01	1.01	0.861	0.944	1.03	0.762	0.607	0.544	0.734	0.704
ChaGo-K-1	0.837	0.822	0.992	0.245	0.185	–	–	1.11	0.304	0.236	0.951	0.846	0.869	0.894	0.878	0.892	0.88	0.831	0.881	0.914
NCI-H23	0.895	0.972	0.861	0.166	0.14	–	0.491	0.417	0.128	0.0919	0.384	0.442	0.451	0.357	0.363	0.271	0.313	0.192	0.219	0.158
NCI-H1975	0.927	0.926	0.132	0.104	0.107	0.944	0.883	0.192	0.128	0.127	0.407	0.32	0.213	0.352	0.206	0.744	0.654	–	0.728	0.756
LK-2	0.982	1.39	1.12	0.161	0.165	–	0.243	0.277	0.207	0.222	0.846	0.794	1.02	0.783	0.914	0.456	0.374	0.444	–	0.568
EKVX	0.847	0.843	0.897	0.872	0.21	0.942	0.894	0.822	0.268	0.106	0.321	–	0.464	0.307	0.292	0.614	–	0.348	0.756	0.706
NCI-H838	1	1	1.17	0.165	0.13	0.822	0.811	0.916	0.348	0.123	0.548	0.559	0.346	0.493	0.248	0.873	0.933	0.776	0.889	0.656
NCI-H2085	1.04	1.08	1.05	0.273	0.199	0.814	0.988	0.757	0.188	0.217	0.671	0.598	0.582	0.405	0.377	0.932	0.991	0.952	0.621	0.299
